{"source": "patent US20120197004A1", "about": "“NOVEL ANTI-MICROBIAL PEPTIDOMIMETIC COMPOUNDS AND METHODS TO CALCULATE ANTI-MICROBIAL ACTIVITY” (priority 2006, published 2012)", "key": {"[1]": {"test_system": "Mycobacterium ranae (ATCC 110)", "conditions": "ATCC 110"}, "in vitro [2]": {"assay": "in vitro", "conditions": "mouse, microsomes, pH 7.4"}, "red blood cells [3]": {"test_system": "red blood cells", "assay": "Hemolytic studies", "conditions": "for % hemolysis / Hemolytic activity: concentration not given"}, "[4]": {"test_system": "Staphylococcus aureus Methicillin/Gentamicin/Tetracycline Resistant (ATCC 33592)"}, "in vitro [5]": {"assay": "in vitro", "conditions": "monkey, microsomes, pH 7.4"}, "red blood cells [6]": {"test_system": "red blood cells", "conditions": "100 μM"}, "in vitro [7]": {"assay": "in vitro", "conditions": "dog, microsomes, pH 7.4"}, "[8]": {"test_system": "Salmonella typhimurium (ATCC 13311)", "conditions": "ATCC 13311"}, "[9]": {"test_system": "Bacillus subtillis (ATCC 43223)", "conditions": "ATCC 43223"}, "in vitro [10]": {"assay": "in vitro", "conditions": "rat, microsomes, pH 7.4"}, "[11]": {"assay": "Metabolic stability, rat liver microsomes"}, "[12]": {"assay": "Metabolic stability, human liver microsomes", "conditions": "for % remaining at time T, Human Liver: 0.5 mg/mL microsomes"}, "[13]": {"assay": "Metabolic stability, monkey liver microsomes"}, "[14]": {"assay": "Metabolic stability, dog liver microsomes"}, "[15]": {"assay": "Metabolic stability, mouse liver microsomes"}, "[16]": {"conditions": "liver microsomes, 1 μM, T = 60 min"}}, "note": "Where two headings read alike, the source gives them in different places. Where a SMILES comes first, the peptide text is derived from it. [ ]: non-standard residue; d: D form. ξ: configuration not given here. ξTic = O=C(O)C1Cc2ccccc2CN1; ξOic = O=C(O)C1CC2CCCCC2N1; GABA = NCCCC(=O)O"}
{"smiles": "CC(=O)NCC(=O)N[C@@H](Cc1ccccc1)C(=O)N1Cc2ccccc2CC1C(=O)N1C(C(=O)NCC(=O)N[C@@H](CCCCN)C(=O)N2Cc3ccccc3CC2C(=O)N2C(C(=O)NCC(=O)N[C@@H](Cc3ccccc3)C(=O)N3Cc4ccccc4CC3C(=O)N3C(C(=O)NCC(=O)N[C@@H](CCCCN)C(=O)N4Cc5ccccc5CC4C(=O)N[C@@H](CCCCN)C(=O)N[C@@H](CCCCN)C(=O)N[C@@H](CCCCN)C(=O)N[C@@H](CCCCN)C(N)=O)CC4CCCCC43)CC3CCCCC32)CC2CCCCC21", "note": "(stereo partly drawn) [FKAB-1G, Ac-GF-Tic-Oic-GK-Tic-Oic-GF-Tic-Oic-GK-Tic-KKKK-CONH2] (Ac-GF[ξTic][ξOic]GK[ξTic][ξOic]GF[ξTic][ξOic]GK[ξTic]KKKK-NH2)", "values": [{"measurement": "MIC Mycobacterium ranae", "setting": "[1]", "value": 10.00, "unit": "µM"}, {"measurement": "remaining at 0.25 h, 1 μM", "setting": "in vitro [2]", "value": 80, "unit": "%"}, {"measurement": "remaining at 0.5 h, 1 μM", "setting": "in vitro [2]", "value": 10, "unit": "%"}, {"measurement": "remaining at 1 h, 1 μM", "setting": "in vitro [2]", "value": 12, "unit": "%"}, {"measurement": "% hemolysis / Hemolytic activity", "setting": "red blood cells [3]", "value": 14, "unit": "%"}, {"measurement": "% hemolysis / Hemolytic activity", "setting": "red blood cells [3]; listed as 25", "value": 14, "unit": "%"}, {"measurement": "MIC Staphylococcus aureus ME/GM/TC resistant", "setting": "[4]; Minimal Inhibitory Concentration, tested at 100-0.1 in 1% DMSO", "value": 3.00, "unit": "µM"}, {"measurement": "Minimum Inhibitory Concentration Staphylococcus aureus ME/GM/TC resistant", "setting": "[4]; in vitro MIC, tested at 100, 30, 10, 3, 1, 0.3 and 0.1 μM in 1% DMSO", "value": 3, "unit": "µM"}, {"measurement": "remaining at 0.25 h, 1 μM", "setting": "in vitro [5]", "value": 55, "unit": "%"}, {"measurement": "remaining at 0.5 h, 1 μM", "setting": "in vitro [5]", "value": 73, "unit": "%"}, {"measurement": "remaining at 1 h, 1 μM", "setting": "in vitro [5]", "value": 91, "unit": "%"}, {"measurement": "% hemolysis 100/25 μM (first value)", "setting": "red blood cells [6]", "value": 14, "unit": "%"}, {"measurement": "remaining at 0.5 h, 1 μM", "setting": "in vitro [7]", "value": 50, "unit": "%"}, {"measurement": "remaining at 1 h, 1 μM", "setting": "in vitro [7]", "value": 63, "unit": "%"}, {"measurement": "MIC Salmonella typhimurium", "setting": "[8]", "value": 10, "unit": "µM"}, {"measurement": "MIC Bacillus Subtillis", "setting": "[9]", "value": 1.00, "unit": "µM"}, {"measurement": "remaining at 0.25 h, 1 μM", "setting": "in vitro [10]", "value": 71, "unit": "%"}, {"measurement": "remaining at 0.5 h, 1 μM", "setting": "in vitro [10]", "value": 79, "unit": "%"}, {"measurement": "remaining at 1 h, 1 μM", "setting": "in vitro [10]", "value": 90, "unit": "%"}]}
{"smiles": "CC(=O)NCCCC(=O)N[C@@H](Cc1ccccc1)C(=O)N1Cc2ccccc2CC1C(=O)N1C(C(=O)NCCCC(=O)N[C@@H](CCCCN)C(=O)N2Cc3ccccc3CC2C(=O)N2C(C(=O)NCCCC(=O)N[C@@H](Cc3ccccc3)C(=O)N3Cc4ccccc4CC3C(=O)N3C(C(=O)NCCCC(=O)N[C@@H](CCCCN)C(=O)N4Cc5ccccc5CC4C(=O)N[C@@H](CCCCN)C(=O)N[C@@H](CCCCN)C(=O)N[C@@H](CCCCN)C(=O)N[C@@H](CCCCN)C(N)=O)CC4CCCCC43)CC3CCCCC32)CC2CCCCC21", "note": "(stereo partly drawn) [FKAB-1Gd, Ac-Gaba-F-Tic-Oic-Gaba-K-Tic-Oic-Gaba-F-Tic-Oic-Gaba-K-Tic-KKKK-CONH2] (Ac-[GABA]F[ξTic][ξOic][GABA]K[ξTic][ξOic][GABA]F[ξTic][ξOic][GABA]K[ξTic]KKKK-NH2)", "values": [{"measurement": "MIC Mycobacterium ranae", "setting": "[1]", "value": 10.00, "unit": "µM"}, {"measurement": "Minimum Inhibitory Concentration Mycobacterium ranae", "setting": "[1]", "value": 10, "unit": "µM"}, {"measurement": "metabolic stability T = 60 min rat", "setting": "[11]; [16]", "value": "high"}, {"measurement": "remaining at 0.25 h, 1 μM", "setting": "[11]; rat, microsomes, pH 7.4", "value": 67, "unit": "%"}, {"measurement": "remaining at 0.5 h, 1 μM", "setting": "[11]; rat, microsomes, pH 7.4", "value": 78, "unit": "%"}, {"measurement": "remaining at 1 h, 1 μM", "setting": "[11]; rat, microsomes, pH 7.4", "value": 83, "unit": "%"}, {"measurement": "remaining at 0.25 h, 1 μM", "setting": "[12]; human, microsomes, pH 7.4", "value": 106, "unit": "%"}, {"measurement": "metabolic stability T = 60 min human", "setting": "[12]; [16]", "value": "high"}, {"measurement": "% remaining at time T, Human Liver", "setting": "[12]; second human column (T = 30 min, head not given), 1 μM", "value": 94, "unit": "%"}, {"measurement": "% remaining at time T, Human Liver", "setting": "[12]; third human column (T = 60 min, head not given), 1 μM", "value": 114, "unit": "%"}, {"measurement": "% hemolysis 100/25 μM (first value)", "setting": "red blood cells [3]; 100 μM", "value": 10.8, "unit": "%/"}, {"measurement": "MIC Staphylococcus aureus ME/GM/TC resistant", "setting": "[4]; ATCC 33592", "value": 100.00, "unit": "µM"}, {"measurement": "MIC Salmonella typhimurium", "setting": "[8]", "value": 10, "unit": "µM"}, {"measurement": "MIC Bacillus Subtillis", "setting": "[9]", "value": 1.00, "unit": "µM"}, {"measurement": "metabolic stability T = 60 min monkey", "setting": "[13]; [16]", "value": "high"}, {"measurement": "remaining at 0.25 h, 1 μM", "setting": "[13]; monkey, microsomes, pH 7.4", "value": 16, "unit": "%"}, {"measurement": "remaining at 0.5 h, 1 μM", "setting": "[13]; monkey, microsomes, pH 7.4", "value": 25, "unit": "%"}, {"measurement": "remaining at 1 h, 1 μM", "setting": "[13]; monkey, microsomes, pH 7.4", "value": 76, "unit": "%"}, {"measurement": "% remaining, Dog Liver T = 15", "setting": "[14]; T = 15 min, 1 μM, 0.5 mg/mL microsomes", "value": 35, "unit": "%"}, {"measurement": "remaining at 0.5 h, 1 μM", "setting": "[14]; dog, microsomes, pH 7.4", "value": 34, "unit": "%"}, {"measurement": "remaining at 1 h, 1 μM", "setting": "[14]; dog, microsomes, pH 7.4", "value": 55, "unit": "%"}, {"measurement": "metabolic stability T = 60 min dog", "setting": "[14]; [16]", "value": "High"}, {"measurement": "metabolic stability T = 60 min mouse", "setting": "[15]; [16]", "value": "very low"}, {"measurement": "remaining at 0.25 h, 1 μM", "setting": "[15]; mouse, microsomes, pH 7.4", "value": 90, "unit": "%"}, {"measurement": "remaining at 0.5 h, 1 μM", "setting": "[15]; mouse, microsomes, pH 7.4", "value": 7, "unit": "%"}, {"measurement": "remaining at 1 h, 1 μM", "setting": "[15]; mouse, microsomes, pH 7.4", "value": 9, "unit": "%"}]}
